From patent publication EP4772513A1, “PI3K-ALPHA INHIBITOR AND USE THEREOF” (TYK Medicines (Zhengzhou), Inc., priority 2023, dated 2025) come the findings set out here.

Test [1] concerns Human breast cancer cells SK-BR-3 (WT). Kind of test: Cell proliferation inhibition assay (CTG), SK-BR-3 (WT). The note with it: Homo sapiens, 72 h, SK-BR-3 (WT) cells, 3 days incubation, CTG readout. In kind it is cell-based. How it is done: (§1) Cell Proliferation Inhibition Assay
(§2) 1. Experimental Materials
(§3) II. Experimental Protocol
(§4) • a) Cell suspension was prepared; • b) The medium was removed from the culture flask; • c) The cells were rinsed once with PBS; • d) Trypsin was added for digestion, and the cells were centrifuged and collected; • e) The cells were resuspended in medium, counted and adjusted to an appropriate concentration; • f) 100 µL of cell suspension was added to each well of a 96-well plate. One plate was used for each cell line, which was incubated overnight in a 37 °C, 5% CO2 incubator.
(§5) 2. Treatment of Compounds
(§6) • a) Serial dilutions of the test compounds were prepared: The compound was prepared as a 10 mM stock solution. 18 µL of the stock solution was dissolved in 982 µL of the culture medium containing DMSO, followed by 4-fold serial dilutions in culture medium containing 0.5% DMSO to give 9 concentrations. The concentrations of the diluted compound were as follows: 180000 nM, 45000 nM, 11250 nM, 2812.5 nM, 703.13 nM, 175.78 nM, 43.95 nM, 10.99 nM, and 2.75 nM. • b) After thorough mixing, 20 µL of each compound solution was added to the cell plate containing 100 µL of cells per well. Each concentration was tested in triplicate. Final concentrations of the compound were as follows: 30000 nM, 7500 nM, 1875 nM, 468.75 nM, 117.188 nM, 29.30 nM, 7.32 nM, 1.83 nM, and 0.46 nM. • c) The cells were transferred into the incubator and incubated for 3 days.
(§7) The cell plate was removed, 25 µL of CTG reagent was added to each well of the 96-well plate, the mixture was shook on a plate shaker at room temperature for 10 minutes, and the plate was read.
(§8) The cell survival rate was calculated using the following formula (% Cell Survival): % Cell Survival = 100% × (OD_Sample−OD_LCave)/(OD_HC−OD_LCave) [formula] • OD_HC: Reading of the 0.1‰ DMSO control group • OD_Sample: Reading of cells treated with compound • OD_LCave: Reading of blank medium
(§9) Analyzed by Prism: Dose-response-Inhibition - Log (inhibitor) vs response (three parameters for the best fit).

The subject of test [2] is Human breast cancer cells T47D (H1047R). Description: Cell proliferation inhibition assay (CTG), T47D (H1047R). Type of test: cell-based. To be noted: Homo sapiens, 72 h, 3 days incubation, CTG readout. How it is done: as §1, §2, §3, §4, §5, §6, §7, §8, §9

As to `Cc1cc([C@@H](C)Nc2ccc(Cl)nc2C(=O)O)c2oc3c(c(=O)c2c1)CCN(S(=O)(=O)C1(C)CC1)C3` [Compound C113], the values for the IC50 in test [1] and in test [2] were more than 5000 nM and not above 500 nM, respectively.

Regarding `C[C@@H](Nc1ccc(Cl)nc1C(=O)O)c1cc(F)cc2c(=O)c3c(oc12)CN(S(=O)(=O)c1c(F)cccc1F)CC3` [Compound C114], the IC50 was more than 5000 nM in test [1] and not above 500 nM in test [2].

As to `C[C@@H](Nc1ccc(Cl)nc1C(=O)O)c1cc(F)cc2c(=O)c3c(oc12)CN(S(=O)(=O)c1ccccc1C(F)(F)F)CC3` [Compound C115], the concentration for half-maximal inhibition (IC50) in test [1] is more than 5000 nM; in test [2] it was not above 500 nM.

As to `C[C@@H]1COCCN1S(=O)(=O)N1CCc2c(oc3c([C@@H](C)Nc4ccc(Cl)nc4C(=O)O)cc(F)cc3c2=O)C1` [Compound C116], the IC50 in test [1] was more than 5000 nM; in test [2] it was not above 500 nM.

`C[C@@H](Nc1ccc(Cl)nc1C(=O)O)c1cc(F)cc2c(=O)c3c(oc12)CN(S(=O)(=O)N1CCOC[C@@H]1C)CC3` [Compound C117]: the IC50 is more than 5000 nM in test [1] and not above 500 nM in test [2].

With `Cc1noc(C)c1S(=O)(=O)N1CCc2c(oc3c([C@@H](C)Nc4ccc(Cl)nc4C(=O)O)cc(F)cc3c2=O)C1` [Compound C118], the half-inhibitory concentration (IC50) in test [1] is more than 5000 nM; in test [2] it was not above 500 nM.

Turning to `C[C@@H](Nc1ccc(Cl)nc1C(=O)O)c1cc(F)cc2c(=O)c3c(oc12)CN(S(=O)(=O)c1cccc2c1CCO2)CC3` [Compound C120], the concentration for half-maximal inhibition (IC50) is more than 5000 nM in test [1] and not above 500 nM in test [2].

Take `C[C@@H](Nc1ccc(Cl)nc1C(=O)O)c1cc(F)cc2c(=O)c3c(oc12)CN(S(=O)(=O)N1CCC(F)(F)CC1)CC3` [Compound C121]: the figures for the IC50 in test [1] and in test [2] were more than 5000 nM and not above 500 nM, respectively.

For `C[C@@H]1CN(S(=O)(=O)N2CCc3c(oc4c([C@@H](C)Nc5ccc(Cl)nc5C(=O)O)cc(F)cc4c3=O)C2)CCO1` [Compound C122], the half-maximal inhibitory concentration (IC50) in test [1] was more than 5000 nM; in test [2] it was not above 500 nM.

For `C[C@H]1CN(S(=O)(=O)N2CCc3c(oc4c([C@@H](C)Nc5ccc(Cl)nc5C(=O)O)cc(F)cc4c3=O)C2)CCO1` [Compound C123], the concentration for half-maximal inhibition (IC50) in test [1] was more than 5000 nM; in test [2], not above 500 nM.

Take `C[C@@H](Nc1ccc(Cl)nc1C(=O)O)c1cc(F)cc2c(=O)c3c(oc12)CN(S(=O)(=O)c1cccc(=O)n1C)CC3` [Compound C124]: the IC50 is more than 5000 nM in test [1] and 500 to 2000 nM in test [2].

As for `Cc1nn(C)c(C)c1S(=O)(=O)N1CCc2c(oc3c([C@@H](C)Nc4ccc(Cl)nc4C(=O)O)cc(F)cc3c2=O)C1` [Compound C125], the figures for the concentration for half-maximal inhibition (IC50) in test [1] and in test [2] were more than 5000 nM and not above 500 nM, respectively.

On to `Cc1ncn(C)c1S(=O)(=O)N1CCc2c(oc3c([C@@H](C)Nc4ccc(Cl)nc4C(=O)O)cc(F)cc3c2=O)C1` [Compound C126], for which the half-maximal inhibitory concentration (IC50) is more than 5000 nM in test [1] and 500 to 2000 nM in test [2].

Regarding `C[C@@H]1CN(S(=O)(=O)N2CCc3c(oc4c([C@@H](C)Nc5ccc(Cl)nc5C(=O)O)cc(F)cc4c3=O)C2)C[C@@H](C)O1` [Compound C127], the half-maximal inhibitory concentration (IC50) was more than 5000 nM in test [1] and not above 500 nM in test [2].

With `Cc1cnn(C)c1S(=O)(=O)N1CCc2c(oc3c([C@@H](C)Nc4ccc(Cl)nc4C(=O)O)cc(F)cc3c2=O)C1` [Compound C128], the 50% inhibitory concentration (IC50) in test [1] is more than 5000 nM; in test [2], not above 500 nM.

Regarding `C[C@@H](Nc1ccc(Cl)nc1C(=O)O)c1cc(F)cc2c(=O)c3c(oc12)CN(S(=O)(=O)c1cc(F)cc(F)c1F)CC3` [Compound C129], the values for the half-inhibitory concentration (IC50) in test [1] and in test [2] were more than 5000 nM and not above 500 nM, respectively.

On to `C[C@@H](Nc1ccc(Cl)nc1C(=O)O)c1cc(F)cc2c(=O)c3c(oc12)CN(S(=O)(=O)N1CCOC(C)(C)C1)CC3` [Compound C130], for which the results for the IC50 in test [1] and in test [2] were more than 5000 nM and not above 500 nM, respectively.

Turning to `C[C@H]1CN(S(=O)(=O)N2CCc3c(oc4c([C@@H](C)Nc5ccc(Cl)nc5C(=O)O)cc(F)cc4c3=O)C2)C[C@H](C)O1` [Compound C132], the IC50 in test [1] was more than 5000 nM; in test [2], not above 500 nM.

In the case of `CC1CN(S(=O)(=O)N2CCc3c(oc4c(C(C)Nc5ccc(Cl)nc5C(=O)O)cc(F)cc4c3=O)C2)CC(C)O1` (stereo not drawn) [Compound C133], the figures for the 50% inhibitory concentration (IC50) in test [1] and in test [2] were more than 5000 nM and not above 500 nM, respectively.

On to `Cc1nnn(C)c1S(=O)(=O)N1CCc2c(oc3c([C@@H](C)Nc4ccc(Cl)nc4C(=O)O)cc(F)cc3c2=O)C1` [Compound C134], for which the values for the half-maximal inhibitory concentration (IC50) in test [1] and in test [2] were more than 5000 nM and not above 500 nM, respectively.

Take `C[C@@H](Nc1ccc(Cl)nc1C(=O)O)c1cc(F)cc2c(=O)c3c(oc12)CN(S(=O)(=O)c1c(F)ccc(F)c1F)CC3` [Compound C135]: the 50% inhibitory concentration (IC50) in test [1] is more than 5000 nM; in test [2], not above 500 nM.

Regarding `C[C@@H](Nc1ccc(Cl)nc1C(=O)O)c1cc(F)cc2c(=O)c3c(oc12)CN(S(=O)(=O)c1cccn2ncc(Cl)c12)CC3` [Compound C137], the IC50 in test [1] was more than 5000 nM; in test [2] it was not above 500 nM.

For `C[C@@H](Nc1ccc(Cl)nc1C(=O)O)c1cc(F)cc2c(=O)c3c(oc12)CN(S(=O)(=O)C1=CCOCC1)CC3` [Compound C138], the IC50 in test [1] is more than 5000 nM; in test [2], not above 500 nM.

`Cc1cc([C@@H](C)Nc2ccccc2C(=O)O)c2oc3c(c(=O)c2c1)CCN(S(=O)(=O)c1c(C)noc1C)C3` [Compound C139]: the half-maximal inhibitory concentration (IC50) in test [1] is more than 5000 nM; in test [2], not above 500 nM.

Regarding `Cc1noc(C)c1S(=O)(=O)N1CCc2c(oc3c([C@@H](C)Nc4ccccc4C(=O)O)cc(F)cc3c2=O)C1` [Compound C140], the IC50 was more than 5000 nM in test [1] and not above 500 nM in test [2].

`C[C@@H](Nc1ccccc1C(=O)O)c1cc(F)cc2c(=O)c3c(oc12)CN(S(=O)(=O)N1CCC(F)(F)CC1)CC3` [Compound C141]: the IC50 was more than 5000 nM in test [1] and 500 to 2000 nM in test [2].

Turning to `Cc1cc([C@@H](C)Nc2ccccc2C(=O)O)c2oc3c(c(=O)c2c1)CCN(S(=O)(=O)N1CCOC(C)(C)C1)C3` [Compound C142], the values for the IC50 in test [1] and in test [2] were more than 5000 nM and not above 500 nM, respectively.

Take `C[C@@H](Nc1ccccc1C(=O)O)c1cc(F)cc2c(=O)c3c(oc12)CN(S(=O)(=O)N1CCOC(C)(C)C1)CC3` [Compound C143]: the half-inhibitory concentration (IC50) in test [1] was more than 5000 nM; in test [2] it was not above 500 nM.

On to `Cc1cc([C@@H](C)Nc2ccccc2C(=O)O)c2oc3c(c(=O)c2c1)CCN(S(=O)(=O)N1CCO[C@H](C)C1)C3` [Compound C144], for which the results for the 50% inhibitory concentration (IC50) in test [1] and in test [2] were more than 5000 nM and not above 500 nM, respectively.

As to `C[C@@H]1CN(S(=O)(=O)N2CCc3c(oc4c([C@@H](C)Nc5ccccc5C(=O)O)cc(F)cc4c3=O)C2)CCO1` [Compound C145], the figures for the IC50 in test [1] and in test [2] were more than 5000 nM and not above 500 nM, respectively.

`C[C@@H](Nc1ccccc1C(=O)O)c1cc(F)cc2c(=O)c3c(oc12)CN(S(=O)(=O)C1CCOCC1)CC3` [Compound C146]: the IC50 in test [1] was more than 5000 nM; in test [2], not above 500 nM.

For the compound `Cc1cc([C@@H](C)Nc2ccccc2C(=O)O)c2oc3c(c(=O)c2c1)CCN(S(=O)(=O)N1CCOC2(CC2)C1)C3` [Compound C147], the figures for the half-inhibitory concentration (IC50) in test [1] and in test [2] were more than 5000 nM and not above 500 nM, respectively.

Turning to `C[C@@H](Nc1ccccc1C(=O)O)c1cc(F)cc2c(=O)c3c(oc12)CN(S(=O)(=O)N1CCOC2(CC2)C1)CC3` [Compound C148], the IC50 in test [1] was more than 5000 nM; in test [2] it was not above 500 nM.

In general, IC50 refers to the concentration that inhibits the measured activity by half. Higher therefore signals a need for much substance.
